Measured values taken from US10655099B2, “Animal protein-free media for cultivation of cells” (Baxalta Incorporated, priority 2004, dated 2020).

How the values were obtained:
GD8/6 cells = details: 0-18 mg/L (as HCl salt) in BAV-medium with 0.25% soy hydrolysate vs unsupplemented 0.25% or 0.4% soy hydrolysate
Method: Small scale experiments with GD8/6 cells in suspension culture were carried in Techne spinner flasks at 200 ml working volume in batch refeed mode at 37° C., without pH and pO2 control.
The activity of Factor VIII (FVIII) (cf. FIGS. 1 to 5 and 9) was measured by a chromogenic assay (Chromogenic, Sweden).
The cell specific productivity is defined as the specific amount of produced protein (U or μg) per number of cells per day (cf. FIGS. 7 and 9) or as the specific amount of produced protein (U) produced per amount of D-glucose consumed by the cells (cf. FIG. 8).

[1] = test system: GD8/6 cells (CHO-cells stably expressing Factor VIII)
Method: (§1) Cell cultures of recombinant mammalian cells (e.g. CHO-cells stably expressing Factor VIII=GD8/6-cells) were grown in suspension in a chemostat culture in 10 l bioreactors. The culture conditions of 37° C., oxygen saturation 20% and pH 7.0 to 7.1 were kept constant. The cultures were supplied with a constant feed of BAV-medium as defined in Example 1 additionally supplemented with soy hydrolysates in the range of […] and/or addition of putrescine.2HCl in the range of 0-1 mg/L (cf. FIG. 1-5).
Cell counts from suspension cells or immobilized cells were determined either by counting with a CASY® cell counter as described by Schärfe et al., (Biotechnologie in LaborPraxis 10: 1096-1103 (1988)) or by citric acid extraction and fluorescent staining of the nuclei followed by counting with a NucleoCounter® (Chemometec, DK). The specific growth rate (μ) is calculated from the increase of the cell densities (X1) and/or the dilution rate (D) of the steady state of chemostat cultures of suspensions cells over a certain time interval (t): μ=D+In (Xt I X0)/t

Recombinant BHK cells = details: 0.25% (w/v) soy hydrolysate + 1.8 mg/L putrescine.2HCl vs 0.25% soy peptone alone; 3 days; EPO activity per glucose consumption
Method: Recombinant BHK cells were grown to confluence in 5% (v/v) fetal calf serum containing medium. The cells were washed with protein-free medium and incubated for 3 days in BAV medium supplemented with 0.25% (w/v) soy hydrolysate or 0.25% (w/v) soy hydrolysate+1.8 mg/L putrescine.2HCl (FIG. 8).

[2] = test system: GD8/6 cells (CHO-cells stably expressing Factor VIII); assay: Volumetric FVIII productivity of GD8/6 cells in chemostat culture (chromogenic FVIII assay); format: cell-based
Method: as §1
The volumetric productivity is calculated from the amount of activity units or antigen titers yielded per liter reactor volume per day (U/L/d or mg/L/d) in the respective production systems.

[3] = 0.25% (w/v) soy hydrolysate + 1 mg/L putrescine.2HCl
[4] = 0.25% (w/v) soy hydrolysate + 1 mg/L putrescine.2HCl vs 0.25% soy hydrolysate alone

SMILES: NCCCNCCCCNCCCN [spermine]
- cell specific productivity (FVIII), change (GD8/6 cells): significant increase

SMILES: NCCCCN [putrescine]
- variation of specific growth rates between soy hydrolysate lots [1, 3]: only minor variations
- specific growth rate, change [1, 4]: increases
- increase in EPO productivity (Recombinant BHK cells): 16%
- variation of volumetric FVIII-productivity between soy hydrolysate lots [2, 3]: only minor variations
- volumetric and cell specific FVIII-productivity, change [2, 4]: increases
- volumetric productivity of FVIII, effect of addition ([2]; addition to BAV-medium with 0.25% (w/v) soy hydrolysate, due to increased cell specific FVIII productivity): over proportional increased
- cell specific productivity (FVIII), change (GD8/6 cells): significant increase

SMILES: NCCC[C@H](N)C(=O)O [ornithine]
- cell specific productivity (FVIII), change (GD8/6 cells): significant increase
